Laboratory results published in patent US9446267B2, “Products comprising a flavoring agent composition” (SYMRISE AG, priority 2009, dated 2016).
Like-named read-outs stand apart in the source and are kept apart here.

Legend:
[1] = L-menthol given a strength of 100; cited from earlier work
[2] = Sensorial assessment of the bitter-sharp note of menthol in toothpaste by a panel of trained experts; format: in vivo; conditions: for bitter-sharp note of the menthol / bitter perception: flavoring agent composition at 1.2 wt. % in toothpaste, usage conditions, expert panel
Procedure: The flavoring agent compositions obtained in this way were in each case incorporated into a respective standard toothpaste mass with a silicic acid basis in a concentration of 1.2 wt. %, in relation to the overall weight of the resulting toothpaste. The toothpastes were tested by a panel of sensorially trained experts under usage conditions. […] Without the use of anethole in the 2nd formulation the bitter-sharp note clearly emerged and the taste result was perceived overall to be unacceptable.
The flavoring agent compositions obtained in this way were in each case incorporated into a respective standard toothpaste mass with a silicic acid basis in a concentration of 1.2 wt. %, in relation to the overall weight of the resulting toothpaste. The toothpastes were tested by a panel of sensorially trained experts under usage conditions.
(§1) The toothpaste prepared in this way was tested by a panel of sensorially trained experts under usage conditions and compared with the toothpaste containing menthane carboxylic acid-N-(4-methoxyphenyl)-amide (WS-12) according to the 1st formulation of Example 1.2 in respect of the bitter perception and the duration of the cooling sensation of freshness.
The flavoring agent composition obtained in this way was incorporated into a standard toothpaste mass with a silicic acid base in a concentration of 1.2 wt. %, in relation to the overall weight of the resulting toothpaste. The toothpaste was tested by a panel of sensorially trained experts under usage conditions. […] Since through the use of menthane carboxylic acid-N-(4-methoxyphenyl)-amide (WS-12) in combination with the further flavoring agents with a log-Kow value in the range of 1.5-5 (I-menthyl acetate, 1,8-cineole, cinnamaldehyde, and abovementioned corresponding proportions of peppermint oils) a strong reduction in bitterness (of the menthol) was achieved, it was advantageously possible to dispense with the use of anethole to reduce the bitterness. Apart from a pleasant, distinctly fresh, long-lasting taste impression, the toothpaste was also able to impart a distinct, sweet cinnamon note as a result of the proportion of cinnamaldehyde.
The flavoring agent compositions according to Example 4.1 (for a teeth cleaning compound for comparative purposes) and Example 4.2 (for a teeth cleaning compound according to the invention) were in each case incorporated with a concentration of 1.2 wt. %, in relation to the overall weight of the resulting toothpaste into a respective toothpaste mass, containing a proportion of 65 wt. % sodium bicarbonate. […]

[3] = Sensorial assessment of intensity and duration of the cooling sensation of freshness of toothpaste; format: in vivo; conditions: for intensity of coolness perceived: scale of 0 to 10, toothpaste with 1.2 wt. % flavoring composition of Example 1.2 containing 0.5 wt. % cooling agent; for duration of the cooling sensation of freshness: teeth cleaning compound / toothpaste, in words
Procedure: The proportion of menthane carboxylic acid-N-(4-methoxyphenyl)-amide (WS-12) in the 1st preparation of Example 1.2 was replaced by menthane-3-carboxylic acid-N-ethyl amide (WS-3).
The flavoring agent composition obtained was likewise incorporated into a standard toothpaste mass with a silicic acid base in a concentration of 1.2 wt. %, in relation to the overall weight of the resultant toothpaste.
as §1
The abscissa of FIG. 1 gives the time in minutes elapsing since cleaning of the teeth with the respective toothpaste.
The intensity of coolness perceived was rated on a scale of 0 to 10, with a value of “0” corresponding to the lowest or no intensity of coolness perceived and a value of “[…]” corresponding to the highest intensity of coolness perceived.

[4] = cited from earlier work
Solubility of WS-12 = format: physicochemical; conditions: in words
Excerpt: In order to bring about the masking of the menthol to a sufficient extent, WS-12 must be dissolved in the flavoring agent composition of the teeth cleaning compound in a sufficient quantity. Our own preliminary investigations have shown that in certain conventional flavoring agent compositions the solubility of the WS-12 is so low that only an insufficient masking (reduction or decrease) in the negative taste impressions of the menthol can be achieved.

[5] = on the philtrum fold (upper lip); cited from earlier work
cold receptor TRPM8 = cold receptor TRPM8 (Homo sapiens, UniProt Q7Z2W7); conditions: cited from earlier work
Sequence of cold receptor TRPM8 (Q7Z2W7 whole entry): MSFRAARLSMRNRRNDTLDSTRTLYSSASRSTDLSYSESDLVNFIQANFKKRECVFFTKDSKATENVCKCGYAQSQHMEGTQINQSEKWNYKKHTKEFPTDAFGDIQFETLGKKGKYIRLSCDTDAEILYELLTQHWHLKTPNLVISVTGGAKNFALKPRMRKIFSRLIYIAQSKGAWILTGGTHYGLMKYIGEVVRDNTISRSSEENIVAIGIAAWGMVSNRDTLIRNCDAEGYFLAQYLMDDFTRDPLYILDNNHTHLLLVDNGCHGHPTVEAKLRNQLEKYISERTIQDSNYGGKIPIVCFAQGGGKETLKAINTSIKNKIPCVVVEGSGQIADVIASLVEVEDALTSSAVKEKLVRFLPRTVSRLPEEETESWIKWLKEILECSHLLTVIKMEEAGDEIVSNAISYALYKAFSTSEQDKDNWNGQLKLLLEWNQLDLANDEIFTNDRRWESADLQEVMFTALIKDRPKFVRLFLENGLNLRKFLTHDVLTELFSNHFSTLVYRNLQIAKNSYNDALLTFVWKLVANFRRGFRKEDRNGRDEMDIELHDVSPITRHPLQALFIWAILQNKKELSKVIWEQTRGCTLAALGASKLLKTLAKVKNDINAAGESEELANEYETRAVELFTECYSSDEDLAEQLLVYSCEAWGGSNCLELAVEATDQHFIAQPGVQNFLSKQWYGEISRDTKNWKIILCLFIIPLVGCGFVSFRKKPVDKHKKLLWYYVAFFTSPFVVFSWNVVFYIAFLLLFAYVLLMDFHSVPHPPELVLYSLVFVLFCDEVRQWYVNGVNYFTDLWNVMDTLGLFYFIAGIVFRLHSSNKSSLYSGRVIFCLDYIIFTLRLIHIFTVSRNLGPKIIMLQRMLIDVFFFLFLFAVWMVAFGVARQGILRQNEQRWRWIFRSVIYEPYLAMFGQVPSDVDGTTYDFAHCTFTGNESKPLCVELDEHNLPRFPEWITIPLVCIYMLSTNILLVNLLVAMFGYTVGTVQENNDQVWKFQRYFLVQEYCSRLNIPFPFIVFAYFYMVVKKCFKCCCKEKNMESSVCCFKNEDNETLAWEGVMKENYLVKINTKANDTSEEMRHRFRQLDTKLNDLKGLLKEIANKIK

SMILES | relative cooling strength compared with L-menthol [1] | bitter-sharp note of the menthol / bitter perception [2] | intensity of coolness perceived ([3]; after 35 minutes) | duration of the cooling sensation of freshness [3] | further results
CC(C)[C@@H]1CC[C@@H](C)C[C@H]1O [L-menthol] | 100 | – | – | – | –
CCNC(=O)C1CC(C)CCC1C(C)C [WS-3, L-menthane carboxylic acid-N-ethyl amide] | 150 | hardly reduced | 0 | only for a relatively short time | reduction or masking of the bitterness or sharpness caused by menthol ([2]; addition to a conventional teeth cleaning compound containing menthol): did not lead to a significant reduction
COc1ccc(NC(=O)C2CC(C)CCC2C(C)C)cc1 (stereo not shown) [WS-12, menthane carboxylic acid-N-(4-methoxyphenyl)-amide] | 150 | significantly reduced | 3 | comparatively long-lasting | duration of cooling effect on the upper lip ([4]; remaining on the upper lip): up to half an hour; cooling effect compared with WS-5 ([4]; upper lip): lower than WS-5; solubility (Solubility of WS-12): relatively not readily soluble; cooling duration [5]: under one hour; effect on the TRPM8 cold receptor (cold receptor TRPM8): stronger effect than WS-5; effect on the TRPM8 cold receptor (cold receptor TRPM8; listed as menthane carboxylic acid-N-(4-methoxyphenyl)-amide): one of the strongest cooling substances; intensity of coolness perceived ([3]; after 60 minutes): ~1.5
CC=Cc1ccc(OC)cc1 [anethole] | – | neutralized | – | – | –
CCOC(=O)CNC(=O)C1CC(C)CCC1C(C)C [WS-5, N^α-(L-menthane carbonyl)-glycine ethyl ester] | 400 | – | – | – | –
